# Results reported in paper PMC12560828, “Chemical structure drives developmental toxicity of alkyl-substituted naphthalenes in zebrafish” (Environment international, 2025).
# Key:
# [1] = system: early life stage zebrafish (Danio rerio) embryos; experiment: Developmental toxicity morphology screen, sealed rotating vial exposure; type: in vivo; design: bmd, MO24 / bmd, MORT / bmd, ANY_ / bmd, AXIS / bmd, CRAN / bmd, EDEM / bmd, LTRK / bmd, MUSC / bmdL, ANY_ / bmdU, ANY_ / bmdL, AXIS / bmdU, AXIS / bmdL, CRAN / bmdU, CRAN / bmdL, EDEM / bmdU, EDEM / bmdL, LTRK / bmdU, LTRK / bmdL, MO24 / bmdU, MO24 / bmdL, MORT / bmdU, MORT: unit not given here; conditions: for BMC50 Any effect: Fig. 2 heatmap, exposure 6-24 hpf in vials, summary of all endpoints; for any effect BMD50: SI-T5; for bmd, MO24: endpoint MO24; for bmd, MORT: endpoint MORT; for bmd, ANY_: morphology endpoint ANY_ (any effect); for bmd, AXIS: morphology endpoint AXIS; for bmd, CRAN: morphology endpoint CRAN
# Description: (§1) When embryos were 6 hpf they were bleached in groups of 1000 or less to limit bacterial growth in sealed vials. Embryos were placed in a strainer for transfer between solutions in 500 mL containers. […] Pools of eight embryos were placed into 2 mL clear glass screw cap exposure vials with polyvinyl-faced pulp liner (Avantar Radnor, PA, United States) using a glass Pasteur pipette. Excess EM was removed, and 2 mL of fresh EM was immediately added. A total of 10 uL of 200x working stock (in DMSO) was added to each vial, then immediately capped and inverted three times to mix. […] Vials were loaded into a custom 3D printed vial holder for slow end-over-end rotation in a dark 28 °C incubator overnight. […] At 24 hpf, embryos were removed from exposure vials and singulated into 96-well plates loaded with 100 μL chemical-free EM. Each exposure vial group was maintained in plate columns. After loading into 96-well plates, embryos were assessed for 24-hour mortality. For the remainder of the exposure, plates were kept stationary at 28 °C in the dark, until 120 hpf when morphology screening and the larval photo motor response (LPR) assay were conducted, section 2.3.2 and section 2.3.3, respectively.
# Each treatment group was replicated over four vials, resulting in 32 embryos per treatment, split over two replicate 96-well plates per chemical. […] All reported concentrations were nominal water concentrations and are included in SI-T4.
# At 24 hpf embryos were assessed for mortality (MO24). At 120 hpf embryos were assessed for abnormality in […] morphological endpoints: mortality (MORT), edemas (EDEM), bent axis (AXIS), touch response (TCHR), craniofacial (CRAN), muscular/cardiovascular (MUSC), lower trunk (LRTK), brain (BRAN), skin (SKIN), and notochord malformations (NC). Morphological assessments were made by a team of three to four individuals. The team was blinded to the identity, plate layout, and concentrations of the chemicals, thereby minimizing bias in morphological screening assessment. To ensure the assessments were consistent, concentration–response reproducibility of a parathion ethyl quality control plate was performed along with each experimental exposure set up. Details of all measured endpoints can be found at Developmental toxicity zebrafish phenotype atlas. […] Each endpoint was scored as a binary presence/absence and scores were compiled into an “Any effect” endpoint, the presence of abnormality in any individual endpoint.
# The Any effect percent was used to calculate the BMC50, 50 % change relative to the background for each endpoint and chemical. All values were reported as the nominal exposure concentration.
# [2] = system: zebrafish larvae, 120 hpf; experiment: Larval photomotor response (LPR) assay after vial exposure; type: in vivo, Danio rerio; conditions: for fold_change: LPR
# Description: as §1
# Each treatment group was replicated over four vials, resulting in 32 embryos per treatment, split over two replicate 96-well plates per chemical. […] Vial groups of plated larvae were tracked to assess the impact of the vial on the results. All reported concentrations were nominal water concentrations and are included in SI-T4.
# The LPR assay was conducted at 120 hpf. […] Larval movement was tracked throughout minutes 6–24. Animals dead or morphologically abnormal were excluded from the analysis, and if more than 30 % of the wells in a treatment group were excluded, the treatment was removed.
# Movement values were binned into 6s intervals, log normalized and used to calculate area under the curve (AUC). AUC values from the first cycle after calibration were used to calculate the LEL for each period (light and dark).
# [3] = period dark, round 1, conc 3.125
# [4] = period dark, round 1, conc 6.25
# [5] = period dark, round 1, conc 12.5
# [6] = period dark, round 2, conc 37.5
# [7] = period light, round 1, conc 3.125
# [8] = period light, round 1, conc 6.25
# [9] = period light, round 1, conc 12.5
# [10] = period light, round 2, conc 37.5
SMILES,"BMC50 AXIS (curved or bent body axis at 120 hpf) ([1]; Fig. 2, nominal concentration)","BMC50 CRAN (craniofacial malformation at 120 hpf) ([1]; Fig. 2, nominal concentration)","BMC50 MO24 (mortality at 24 hpf) ([1]; Fig. 2, nominal concentration)","BMC50 MORT (mortality at 120 hpf) ([1]; Fig. 2, nominal concentration)",BMC50 Any effect ([1]; nominal concentration),any effect BMD50 [1],"bmd, MO24 ([1]; benchmark dose)","bmd, MORT ([1]; benchmark dose)","bmd, ANY_ ([1]; benchmark dose)","bmd, AXIS ([1]; benchmark dose)","bmd, CRAN ([1]; benchmark dose)","fold_change [2, 3]","fold_change [2, 4]","fold_change [2, 5]","fold_change ([2]; period dark, round 1, conc 25)","fold_change ([2]; period dark, round 2, conc 30)","fold_change [2, 7]","fold_change [2, 8]","fold_change [2, 9]","fold_change ([2]; period light, round 1, conc 25)",further results
"Cc1ccc2c(C)cccc2c1 [1,6-dimethylnaphthalene]",46.6 µM,42.5 µM,46.6 µM,43.4 µM,34.6 µM,34.56 µM,46.5621,43.4183,34.5645,46.5655,42.4789,,,,,,,,,,"BMC50 EDEM (pericardial and/or yolk sac edema at 120 hpf) ([1]; Fig. 2, nominal concentration): 46 µM; bmd, EDEM ([1]; benchmark dose, morphology endpoint EDEM): 45.9847"
"Cc1cccc2cccc(C)c12 [1,8-dimethylnaphthalene]",,,49.8 µM,48.7 µM,41.2 µM,41.15 µM,49.8371,48.678,41.1508,,,-0.1333,0.3857,-0.2522,-0.4588,-0.4155,0.4922,0.5326,-0.3791,0.4908,"fold_change [2, 6]: -0.7493; fold_change ([2]; period dark, round 2, conc 45): -0.6849; fold_change ([2]; period light, round 2, conc 30): -0.235; fold_change [2, 10]: -0.3043; fold_change ([2]; period light, round 2, conc 45): 1.248"
CCc1cccc2ccccc12 [1-ethylnaphthalene],43.9 µM,46.3 µM,44.6 µM,41.9 µM,33.7 µM,33.7 µM,44.6047,41.9285,33.6977,43.8887,46.3281,0.05526,0.06428,-0.02558,-0.1629,-0.2464,-0.3674,-0.401,-0.744,0.4136,"fold_change [2, 6]: -0.2326; fold_change ([2]; period light, round 2, conc 30): 0.3971; fold_change [2, 10]: -0.206"
Cc1cccc2ccccc12 [1-methylnaphthalene],,,,,,,,,,,,-0.2838,-0.4018,-0.5302,-0.8382,,0.7433,0.645,0.113,0.4697,"morphological effects (BMC50 for any morphological endpoint) ([1]; 0-50 μM, result in words): no morphological BMC50 values; LPR behavioral effect ([2]; 120 hpf, light/dark periods, result in words): active; fold_change ([2]; period dark, round 1, conc 50): -0.8713; fold_change ([2]; period light, round 1, conc 50): 0.667"
"Cc1cc2ccccc2cc1C [2,3-dimethylnaphthalene]",,,,,46.6 µM,46.56 µM,,,46.5587,,,-0.07813,-0.1051,-0.1104,-0.9852,,-0.3145,-0.003485,-1.16,-0.6826,"fold_change ([2]; period dark, round 1, conc 50): -1.366; fold_change ([2]; period light, round 1, conc 50): -0.533"
"CCc1ccc2cc(CC)ccc2c1 [2,6-diethylnaphthalene]",46.9 µM,,38.1 µM,39.2 µM,18.8 µM,18.77 µM,38.0576,39.1942,18.7673,46.8649,,0.178,-0.04909,-0.5724,-0.5473,,-0.07519,0.5876,0.2476,0.1223,
